Results taken from PubChem BioAssay (NCI).
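Cultured in 96-well plates, cells were exposed to test compound for 48 hours across five concentrations. The concentration for 50% growth inhibition is given as GI50. TGI marks complete inhibition of growth.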

Key:
Assay in all cases: DTP human tumour cell line panel, 48 h
SK-MEL-28 melanoma = test system: SK-MEL-28 melanoma
LOX IMVI melanoma = test system: LOX IMVI melanoma
HCT-116 colon = test system: HCT-116 colon
K-562 leukemia = test system: K-562 leukemia
CCRF-CEM leukemia = test system: CCRF-CEM leukemia
NCI-H226 lung = test system: NCI-H226 lung
A549 NSCLC = test system: A549 NSCLC
HCT-15 colon = test system: HCT-15 colon
SNB-19 CNS = test system: SNB-19 CNS
SNB-75 CNS = test system: SNB-75 CNS
RPMI-8226 leukemia = test system: RPMI-8226 leukemia
UACC-62 melanoma = test system: UACC-62 melanoma
SF-268 CNS = test system: SF-268 CNS
EKVX NSCLC = test system: EKVX NSCLC
CAKI-1 renal = test system: CAKI-1 renal
SW-620 colon = test system: SW-620 colon
UO-31 renal = test system: UO-31 renal
SR leukemia = test system: SR leukemia
MOLT-4 leukemia = test system: MOLT-4 leukemia
BT-549 breast = test system: BT-549 breast
SK-MEL-5 melanoma = test system: SK-MEL-5 melanoma
MALME-3M melanoma = test system: MALME-3M melanoma
NCI-H460 lung = test system: NCI-H460 lung
HS 578T breast = test system: HS 578T breast
SF-295 CNS = test system: SF-295 CNS
SF-539 CNS = test system: SF-539 CNS
NCI/ADR-RES ovarian = test system: NCI/ADR-RES ovarian
NCI-H522 lung = test system: NCI-H522 lung
COLO 205 colon = test system: COLO 205 colon
NCI-H23 lung = test system: NCI-H23 lung
UACC-257 melanoma = test system: UACC-257 melanoma
KM12 colon = test system: KM12 colon
MDA-MB-231 breast = test system: MDA-MB-231 breast
IGROV1 ovarian = test system: IGROV1 ovarian
TK-10 renal = test system: TK-10 renal
HL-60(TB) leukemia = test system: HL-60(TB) leukemia
RXF 393 renal = test system: RXF 393 renal
U251 CNS = test system: U251 CNS
SK-MEL-2 melanoma = test system: SK-MEL-2 melanoma
HCC-2998 colon = test system: HCC-2998 colon
ACHN renal = test system: ACHN renal
OVCAR-5 ovarian = test system: OVCAR-5 ovarian
786-0 renal = test system: 786-0 renal
M14 melanoma = test system: M14 melanoma
HOP-92 NSCLC = test system: HOP-92 NSCLC
SN12C renal = test system: SN12C renal
SK-OV-3 ovarian = test system: SK-OV-3 ovarian
DU-145 prostate = test system: DU-145 prostate
OVCAR-3 ovarian = test system: OVCAR-3 ovarian
OVCAR-8 ovarian = test system: OVCAR-8 ovarian
MDA-MB-435 = test system: MDA-MB-435
OVCAR-4 ovarian = test system: OVCAR-4 ovarian
MCF7 breast = test system: MCF7 breast
PC-3 prostate = test system: PC-3 prostate
HOP-62 NSCLC = test system: HOP-62 NSCLC
HT29 colon = test system: HT29 colon
A498 renal = test system: A498 renal

`C=C1C(O)C2C(=C(CCC3CC3)C13CC3)C(=O)C(C)(C)C2O` (configuration not stated) was tested, and the GI50 (SK-MEL-28 melanoma) was 76.2 µM, the TGI (SK-MEL-28 melanoma) was > 100 µM and the GI50 (LOX IMVI melanoma) was > 100 µM. For the same compound, the TGI (LOX IMVI melanoma) was > 100 µM, the GI50 (HCT-116 colon) was > 100 µM and the TGI (HCT-116 colon) was > 100 µM. The GI50 (K-562 leukemia) was 61.3 µM, the TGI (K-562 leukemia) was > 100 µM and the GI50 (CCRF-CEM leukemia) was > 100 µM. The TGI (CCRF-CEM leukemia) was > 100 µM, the GI50 (NCI-H226 lung) was > 100 µM and the TGI (NCI-H226 lung) was > 100 µM. For the same compound, the GI50 (A549 NSCLC) was > 100 µM, the TGI (A549 NSCLC) was > 100 µM and the GI50 (HCT-15 colon) was > 100 µM. The TGI (HCT-15 colon) was > 100 µM, the GI50 (SNB-19 CNS) was > 100 µM and the TGI (SNB-19 CNS) was > 100 µM. For the same compound, the GI50 (SNB-75 CNS) was 23.2 µM, the TGI (SNB-75 CNS) was > 100 µM and the GI50 (RPMI-8226 leukemia) was 43.7 µM. For the same compound, the TGI (RPMI-8226 leukemia) was > 100 µM, the GI50 (UACC-62 melanoma) was 87.4 µM and the TGI (UACC-62 melanoma) was > 100 µM. For the same compound, the GI50 (SF-268 CNS) was > 100 µM, the TGI (SF-268 CNS) was > 100 µM and the GI50 (EKVX NSCLC) was > 100 µM. For the same compound, the TGI (EKVX NSCLC) was > 100 µM, the GI50 (CAKI-1 renal) was 45.8 µM and the TGI (CAKI-1 renal) was > 100 µM. For the same compound, the GI50 (SW-620 colon) was > 100 µM, the TGI (SW-620 colon) was > 100 µM and the GI50 (UO-31 renal) was > 100 µM. The TGI (UO-31 renal) was > 100 µM, the GI50 (SR leukemia) was 32.1 µM and the TGI (SR leukemia) was > 100 µM. The GI50 (MOLT-4 leukemia) was 44.3 µM, the TGI (MOLT-4 leukemia) was > 100 µM and the GI50 (BT-549 breast) was > 100 µM. For the same compound, the TGI (BT-549 breast) was > 100 µM, the GI50 (SK-MEL-5 melanoma) was 42.1 µM and the TGI (SK-MEL-5 melanoma) was > 100 µM. The GI50 (MALME-3M melanoma) was > 100 µM, the TGI (MALME-3M melanoma) was > 100 µM and the GI50 (NCI-H460 lung) was 80.9 µM. For the same compound, the TGI (NCI-H460 lung) was > 100 µM, the GI50 (HS 578T breast) was 25.7 µM and the TGI (HS 578T breast) was > 100 µM. The GI50 (SF-295 CNS) was 55.8 µM, the TGI (SF-295 CNS) was > 100 µM and the GI50 (SF-539 CNS) was > 100 µM. For the same compound, the TGI (SF-539 CNS) was > 100 µM, the GI50 (NCI/ADR-RES ovarian) was > 100 µM and the TGI (NCI/ADR-RES ovarian) was > 100 µM. The GI50 (NCI-H522 lung) was 60.4 µM, the TGI (NCI-H522 lung) was > 100 µM and the GI50 (COLO 205 colon) was > 100 µM. The TGI (COLO 205 colon) was > 100 µM, the GI50 (NCI-H23 lung) was 76.2 µM and the TGI (NCI-H23 lung) was > 100 µM. The GI50 (UACC-257 melanoma) was 71.3 µM, the TGI (UACC-257 melanoma) was > 100 µM and the GI50 (KM12 colon) was > 100 µM. For the same compound, the TGI (KM12 colon) was > 100 µM, the GI50 (MDA-MB-231 breast) was 29.1 µM and the TGI (MDA-MB-231 breast) was 99 µM. The GI50 (IGROV1 ovarian) was > 100 µM, the TGI (IGROV1 ovarian) was > 100 µM and the GI50 (TK-10 renal) was > 100 µM. For the same compound, the TGI (TK-10 renal) was > 100 µM, the GI50 (HL-60(TB) leukemia) was > 100 µM and the TGI (HL-60(TB) leukemia) was > 100 µM. The GI50 (RXF 393 renal) was 32.9 µM, the TGI (RXF 393 renal) was > 100 µM and the GI50 (U251 CNS) was 89.9 µM. The TGI (U251 CNS) was > 100 µM, the GI50 (SK-MEL-2 melanoma) was > 100 µM and the TGI (SK-MEL-2 melanoma) was > 100 µM. The GI50 (HCC-2998 colon) was > 100 µM, the TGI (HCC-2998 colon) was > 100 µM and the GI50 (ACHN renal) was > 100 µM. The TGI (ACHN renal) was > 100 µM, the GI50 (OVCAR-5 ovarian) was > 100 µM and the TGI (OVCAR-5 ovarian) was > 100 µM. The GI50 (786-0 renal) was > 100 µM, the TGI (786-0 renal) was > 100 µM and the GI50 (M14 melanoma) was > 100 µM. For the same compound, the TGI (M14 melanoma) was > 100 µM, the GI50 (HOP-92 NSCLC) was 34.2 µM and the TGI (HOP-92 NSCLC) was > 100 µM. The GI50 (SN12C renal) was 71.3 µM, the TGI (SN12C renal) was > 100 µM and the GI50 (SK-OV-3 ovarian) was 30.1 µM. The TGI (SK-OV-3 ovarian) was > 100 µM, the GI50 (DU-145 prostate) was > 100 µM and the TGI (DU-145 prostate) was > 100 µM. The GI50 (OVCAR-3 ovarian) was 59.5 µM, the TGI (OVCAR-3 ovarian) was > 100 µM and the GI50 (OVCAR-8 ovarian) was > 100 µM. The TGI (OVCAR-8 ovarian) was > 100 µM, the GI50 (MDA-MB-435) was > 100 µM and the TGI (MDA-MB-435) was > 100 µM. The GI50 (OVCAR-4 ovarian) was > 100 µM, the TGI (OVCAR-4 ovarian) was > 100 µM and the GI50 (MCF7 breast) was 58.7 µM. The TGI (MCF7 breast) was > 100 µM, the GI50 (PC-3 prostate) was 92.3 µM and the TGI (PC-3 prostate) was > 100 µM. For the same compound, the GI50 (HOP-62 NSCLC) was > 100 µM, the TGI (HOP-62 NSCLC) was > 100 µM and the GI50 (HT29 colon) was > 100 µM. For the same compound, the TGI (HT29 colon) was > 100 µM.
In the case of `COc1cc2c(cc1OCCCN1CCN(C)CC1)N=C[C@@H]1CCCN1C2=O`, the TGI (SK-MEL-28 melanoma) is reported as 3.97 µM, the TGI (LOX IMVI melanoma) is reported as 4.38 µM and the TGI (HCT-116 colon) is reported as 9.47 µM. For the same compound, the TGI (K-562 leukemia) was 14.2 µM, the TGI (CCRF-CEM leukemia) was 10.6 µM and the TGI (NCI-H226 lung) was 4.62 µM. For the same compound, the TGI (A549 NSCLC) was 5.94 µM, the TGI (HCT-15 colon) was 7.02 µM and the TGI (SNB-19 CNS) was > 100 µM. The TGI (RPMI-8226 leukemia) was 3.68 µM, the TGI (UACC-62 melanoma) was 3.75 µM and the TGI (SF-268 CNS) was > 100 µM. For the same compound, the TGI (EKVX NSCLC) was 6.02 µM, the TGI (CAKI-1 renal) was 3.12 µM and the TGI (UO-31 renal) was > 100 µM. For the same compound, the TGI (SR leukemia) was 0.839 µM, the TGI (MOLT-4 leukemia) was 2.53 µM and the TGI (BT-549 breast) was 6.59 µM. The TGI (SK-MEL-5 melanoma) was 9.29 µM, the TGI (NCI-H460 lung) was > 100 µM and the TGI (HS 578T breast) was > 100 µM. For the same compound, the TGI (SF-295 CNS) was 5.37 µM, the TGI (SF-539 CNS) was 4.97 µM and the TGI (NCI/ADR-RES ovarian) was 21.1 µM. For the same compound, the TGI (A498 renal) was 5.75 µM, the TGI (NCI-H522 lung) was 0.518 µM and the TGI (COLO 205 colon) was 2.25 µM. It also gave a TGI (UACC-257 melanoma) of 5.68 µM, a TGI (KM12 colon) of 4.95 µM and a TGI (MDA-MB-231 breast) of 22.3 µM. For the same compound, the TGI (TK-10 renal) was > 100 µM, the TGI (HL-60(TB) leukemia) was 5.37 µM and the TGI (RXF 393 renal) was 6.03 µM. The TGI (U251 CNS) was 14.5 µM, the TGI (SK-MEL-2 melanoma) was 7.41 µM and the TGI (ACHN renal) was 6.12 µM. For the same compound, the TGI (OVCAR-5 ovarian) was 7.01 µM, the TGI (786-0 renal) was 18.3 µM and the TGI (M14 melanoma) was 4.99 µM. For the same compound, the TGI (HOP-92 NSCLC) was 4.65 µM, the TGI (SN12C renal) was > 100 µM and the TGI (SK-OV-3 ovarian) was 23.2 µM. For the same compound, the TGI (DU-145 prostate) was 5.98 µM, the TGI (OVCAR-8 ovarian) was 8.79 µM and the TGI (MDA-MB-435) was 3.77 µM. For the same compound, the TGI (OVCAR-4 ovarian) was 4.78 µM, the TGI (MCF7 breast) was > 100 µM and the TGI (PC-3 prostate) was 9.78 µM. For the same compound, the TGI (HOP-62 NSCLC) was 9.64 µM and the TGI (HT29 colon) was 4.99 µM.
